Where a name gives a salt, the structure may show the parent alone.
Tested on: Acinetobacter baumannii ATCC17978
Experiment: Antimicrobial susceptibility testing: 90% growth inhibitory concentration (IC90) determination, Iso-Sensitest broth
Type: cell-based
Settings: 90% growth inhibitory concentration, Acinetobacter baumannii ATCC17978, Iso-Sensitest broth, OD 600 nm over 16 h; read-out: ATCC17978 IC90
How it was run: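 A. baumannii ATCC17978 grown in Iso-Sensitest broth across 10 compound concentrations at 35±2 °C.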

Compared with Cc1cc(Nc2nccn3c(-c4ccc(OC(F)F)cc4)cnc23)ccc1C(=O)N1CCN(C(=O)[C@@H]2C[C@@H](O)CN2)CC1 [Example 180, [4-[[3-[4-(difluoromethoxy)phenyl]imidazo[1,2-a]pyrazin-8-yl]amino]-2-methyl-phenyl]-[4-[(2S,4R)-4-hydroxypyrrolidine-2-carbonyl]piperazin-1-yl]methanone hydrochloride], Cc1cc(Nc2nccn3c(-c4ccc(OC(F)F)cc4)cnc23)ccc1C(=O)N1CCN(C(=O)[C@@H]2C[C@H](O)CN2)CC1 [Example 182, [4-[[3-[4-(difluoromethoxy)phenyl]imidazo[1,2-a]pyrazin-8-yl]amino]-2-methyl-phenyl]-[4-[(2S,4S)-4-hydroxypyrrolidine-2-carbonyl]piperazin-1-yl]methanone hydrochloride hydrochloride] is 1.5-fold lower in IC90: 0.27 µM for the first, 0.18 µM for the second.

Going from Cc1cc(Nc2nccn3c(-c4ccc(OC(F)F)cc4)cnc23)ccc1C(=O)N1CCC(C(=O)N2CCNCC2CO)CC1 (stereo not drawn) [Example 181, [4-[[3-[4-(difluoromethoxy)phenyl]imidazo[1,2-a]pyrazin-8-yl]amino]-2-methyl-phenyl]-[4-[2-(hydroxymethyl)piperazine-1-carbonyl]-1-piperidyl]methanone hydrochloride] to Cc1cc(Nc2nccn3c(-c4ccc(OC(F)F)cc4)cnc23)ccc1C(=O)N1CCC(C(=O)N2CCNC(CO)C2)CC1 (stereo not drawn) [Example 183, [4-[[3-[4-(difluoromethoxy)phenyl]imidazo[1,2-a]pyrazin-8-yl]amino]-2-methyl-phenyl]-[4-[3-(hydroxymethyl)piperazine-1-carbonyl]-1-piperidyl]methanone hydrochloride], the IC90 rises from 0.13 µM to 0.27 µM (2.1-fold).

CCc1cc(Nc2nccn3c(-c4ccc(OC)c(F)c4F)cnc23)ccc1C(=O)N1CCN(C(=O)[C@@H]2C[C@@H](O)CN2)CC1 [Example 185, [4-[[3-(2,3-difluoro-4-methoxy-phenyl)imidazo[1,2-a]pyrazin-8-yl]amino]-2-ethyl-phenyl]-[4-[(2S,4R)-4-hydroxypyrrolidine-2-carbonyl]piperazin-1-yl]methanone hydrochloride] and COc1ccc(-c2cnc3c(Nc4ccc(C(=O)N5CCN(C(=O)C6CNC6)CC5)c(C)c4)nccn23)c(F)c1F [Example 203, [4-(azetidine-3-carbonyl)piperazin-1-yl]-[4-[[3-(2,3-difluoro-4-methoxy-phenyl)imidazo[1,2-a]pyrazin-8-yl]amino]-2-methyl-phenyl]methanone; hydrochloride] are within 1.5-fold of each other in IC90: 0.22 µM for the first, 0.19 µM for the second.

COc1ccc(-c2cnc3c(Nc4ccc(C(=O)N5CCN(C(=O)[C@H]6CCNC6)CC5)c(C)c4)nccn23)cc1F [Example 186, [4-[[3-(3-fluoro-4-methoxy-phenyl)imidazo[1,2-a]pyrazin-8-yl]amino]-2-methyl-phenyl]-[4-[(3S)-pyrrolidine-3-carbonyl]piperazin-1-yl]methanone hydrochloride] and COc1ccc(-c2cnc3c(Nc4ccc(C(=O)N5CCN(C(=O)C6CNC6)CC5)c(C)c4)nccn23)cc1F [Example 187, [4-(azetidine-3-carbonyl)piperazin-1-yl]-[4-[[3-(3-fluoro-4-methoxy-phenyl)imidazo[1,2-a]pyrazin-8-yl]amino]-2-methyl-phenyl]methanone hydrochloride] are within 1.5-fold of each other in IC90: 0.25 µM for the first, 0.23 µM for the second.

COc1ccc(-c2cnc3c(Nc4ccc(C(=O)N5CCN(C(=O)[C@H]6CCNC[C@@H]6O)CC5)c(C)c4)nccn23)c(F)c1F [Example 192, [4-[[3-(2,3-difluoro-4-methoxy-phenyl)imidazo[1,2-a]pyrazin-8-yl]amino]-2-methyl-phenyl]-[4-[(3R,4S)-3-hydroxypiperidine-4-carbonyl]piperazin-1-yl]methanone hydrochloride] and COc1ccc(-c2cnc3c(Nc4ccc(C(=O)N5CCN(C(=O)[C@@H]6CCNC[C@H]6O)CC5)c(C)c4)nccn23)c(F)c1F [Example 193, [4-[[3-(2,3-difluoro-4-methoxy-phenyl)imidazo[1,2-a]pyrazin-8-yl]amino]-2-methyl-phenyl]-[4-[(3S,4R)-3-hydroxypiperidine-4-carbonyl]piperazin-1-yl]methanone hydrochloride] are the same in IC90: 0.29 µM for the first, 0.29 µM for the second.

First: CCc1cc(Nc2nccn3c(-c4ccc(OCC#N)c(F)c4F)cnc23)ccc1C(=O)N1CCN(C(=O)C2CCNCC2)CC1 [Example 194, 2-[4-[8-[3-ethyl-4-[4-(piperidine-4-carbonyl)piperazine-1-carbonyl]anilino]imidazo [1,2-a]pyrazin-3-yl]-2,3-difluoro-phenoxy]acetonitrile formate]
Second: Cc1cc(Nc2nccn3c(-c4ccc(OCC#N)c(F)c4F)cnc23)ccc1C(=O)N1CCN(C(=O)[C@H]2CCNC2)CC1 [Example 201, 2-[2,3-difluoro-4-[8-[3-methyl-4-[4-[(3S)-pyrrolidine-3-carbonyl]piperazine-1-carbonyl]anilino]imidazo[1,2-a]pyrazin-3-yl]phenoxy] acetonitrile; formic acid]
The IC90 of the first is 2.9-fold higher: 0.29 µM for the first, 0.1 µM for the second.

COc1ccc(-c2cnc3c(Nc4ccc(C(=O)N5CCN(C(=O)[C@@H]6CCNC6)CC5)c(C)c4)nccn23)c(F)c1F [Example 202, (R)-(4-(4-((3-(2,3-difluoro-4-methoxyphenyl)imidazo[1,2-a]pyrazin-8-yl)amino)-2-methylbenzoyl)piperazin-1-yl) (pyrrolidin-3-yl)methanone hydrochloride] and COc1ccc(-c2cnc3c(Nc4ccc(C(=O)N5CCN(C(=O)[C@H]6CCNC6)CC5)c(C)c4)nccn23)c(Cl)c1F [Example 210, [4-[[3-(2-chloro-3-fluoro-4-methoxy-phenyl)imidazo[1,2-a]pyrazin-8-yl]amino]-2-methyl-phenyl]-[4-[(3S)-pyrrolidine-3-carbonyl]piperazin-1-yl]methanone formate] are within 1.5-fold of each other in IC90: 0.093 µM for the first, 0.094 µM for the second.

Compared with COc1ccc(-c2cnc3c(Nc4ccc(C(=O)N5CCN(C(=O)C6C7CCC6CNC7)CC5)c(C)c4)nccn23)c(F)c1F (stereo not drawn) [Example 205, [4-(3-azabicyclo[3.2.1]octane-8-carbonyl)piperazin-1-yl]-[4-[[3-(2,3-difluoro-4-methoxy-phenyl)imidazo[1,2-a]pyrazin-8-yl]amino]-2-methyl-phenyl]methanone hydrochloride], COc1ccc(-c2cnc3c(Nc4ccc(C(=O)N5CCN(C(=O)[C@@H]6CCNC[C@H]6O)CC5)c(C)c4)nccn23)c(Cl)c1F [Example 216, [4-[[3-(2-chloro-3-fluoro-4-methoxy-phenyl)imidazo[1,2-a]pyrazin-8-yl]amino]-2-methyl-phenyl]-[4-[(3S,4R)-3-hydroxypiperidine-4-carbonyl]piperazin-1-yl]methanone formate] is 1.7-fold higher in IC90: 0.11 µM for the first, 0.19 µM for the second.

Cc1cc(Nc2nccn3c(-c4ccc(OCC#N)c(F)c4Cl)cnc23)ccc1C(=O)N1CCC(C(=O)N2CCNC[C@@H]2CO)CC1 [Example 207, 2-[3-chloro-2-fluoro-4-[8-[4-[4-[(2R)-2-(hydroxymethyl)piperazine-1-carbonyl]piperidine-1-carbonyl]-3-methyl-anilino]imidazo[1,2-a]pyrazin-3-yl]phenoxy] acetonitrile] and Cc1cc(Nc2nccn3c(-c4ccc(OCC#N)c(F)c4Cl)cnc23)ccc1C(=O)N1CCC(C(=O)N2CCNC[C@H]2CO)CC1 [Example 208, 2-[3-chloro-2-fluoro-4-[8-[4-[4-[(2S)-2-(hydroxymethyl)piperazine-1-carbonyl]piperidine-1-carbonyl]-3-methyl-anilino]imidazo[1,2-a]pyrazin-3-yl]phenoxy] acetonitrile formate] are within 1.5-fold of each other in IC90: 0.17 µM for the first, 0.16 µM for the second.

Going from COc1ccc(-c2cnc3c(Nc4ccc(C(=O)N5CCN(C(=O)C6(O)CCNCC6)CC5)c(C)c4)nccn23)c(Cl)c1F [Example 215, [4-[[3-(2-chloro-3-fluoro-4-methoxy-phenyl)imidazo[1,2-a]pyrazin-8-yl]amino]-2-methyl-phenyl]-[4-(4-hydroxypiperidine-4-carbonyl)piperazin-1-yl]methanone formate] to COc1ccc(-c2cnc3c(Nc4ccc(C(=O)N5CCN(C(=O)[C@H]6CCNC[C@H]6O)CC5)c(C)c4)nccn23)c(Cl)c1F [Example 217, [4-[[3-(2-chloro-3-fluoro-4-methoxy-phenyl)imidazo[1,2-a]pyrazin-8-yl]amino]-2-methyl-phenyl]-[4-[(3S,4S)-3-hydroxypiperidine-4-carbonyl]piperazin-1-yl]methanone], the IC90 rises from 0.15 µM to 0.28 µM (1.9-fold).

COc1ccc(-c2cnc3c(Nc4ccc(C(=O)N5CCN(C(=O)[C@H]6CCNC[C@@H]6O)CC5)c(C)c4)nccn23)c(Cl)c1F [Example 219, [4-[[3-(2-chloro-3-fluoro-4-methoxy-phenyl)imidazo[1,2-a]pyrazin-8-yl]amino]-2-methyl-phenyl]-[4-[(3R,4S)-3-hydroxypiperidine-4-carbonyl]piperazin-1-yl]methanone formate] and CNCC(=O)N1CCN(C(=O)c2ccc(Nc3nccn4c(-c5ccc(OC)c(F)c5)cnc34)cc2C)CC1 [Example 224, 1-(4-(4-((3-(3-fluoro-4-methoxyphenyl)imidazo[1,2-a]pyrazin-8-yl)amino)-2-methylbenzoyl)piperazin-1-yl)-2-(methylamino) ethanone hydrochloride] are within 1.5-fold of each other in IC90: 0.22 µM for the first, 0.18 µM for the second.

Going from Cc1cc(Nc2nccn3c(-c4ccc(OC(F)F)cc4)cnc23)ccc1C(=O)N1CCN(C(=O)CCNC(=N)N)CC1 [Example 225, 1-(3-(4-(4-((3-(4-(difluoromethoxy)phenyl)imidazo[1,2-a]pyrazin-8-yl)amino)-2-methylbenzoyl)piperazin-1-yl)-3-oxopropyl)guanidine] to Cc1cc(Nc2nccn3c(-c4ccc(OC(F)F)cc4)cnc23)ccc1C(=O)N1CCN(C(=O)[C@H](C)N)CC1 [Example 226, (2S)-2-amino-1-[4-[4-[[3-4-(difluoromethoxy)phenyl]imidazo[1,2-a]pyrazin-8-yl]amino]-2-methyl-benzoyl]piperazin-1-yl]propan-1-one hydrochloride], the IC90 rises from 0.26 µM to 0.52 µM (2-fold).

Source: patent publication US20230011869A1 (Hoffmann-La Roche Inc., priority 2018, published 2023)
